Laboratory results reported in PubChem BioAssay AID1259407 (Chemical Carcinogenesis Research Information System (CCRIS), 2018).
Active and inactive are the calls of the source. No rule for the calls is given here.

Tested on: CCRIS mutagenicity, Ames/micronucleus/aberration tests
Assay: CCRIS mutagenicity studies

For `O=Cc1ccccc1`, the mutagenic call (End Point: IN VITRO CHROMOSOMAL ABERRATIONS, Test System: CHINESE HAMSTER OVARY CELLS, Metabolic Activation: NONE) was “inactive; negative”, the mutagenic call (End Point: IN VITRO CHROMOSOMAL ABERRATIONS, Test System: CHINESE HAMSTER OVARY CELLS, Metabolic Activation: RAT, LIVER, S-9, AROCLOR 1254) was “inactive; negative” and the mutagenic call (End Point: In vitro chromosomal aberrations, Test System: Chinese hamster lung (CHL/IU) cells, Metabolic Activation: Rat, Liver, S9, Phenobarbital and 5,6-benzoflavone) was “inactive; negative. weak positive response for ploidy is not dose related”. The mutagenic call (Test System: AMES SALMONELLA TYPHIMURIUM, Strain/Indicator: TA97, Metabolic Activation: NONE, Method: PREINCUBATION) was “inactive; negative”, the mutagenic call (Test System: AMES SALMONELLA TYPHIMURIUM, Strain/Indicator: TA97, Metabolic Activation: RAT, LIVER, S-9, AROCLOR 1254, Method: PREINCUBATION) was “inactive; negative” and the mutagenic call (Test System: AMES SALMONELLA TYPHIMURIUM, Strain/Indicator: TA98, Metabolic Activation: HAMSTER, LIVER, S-9, AROCLOR 1254 (10%), Method: PREINCUBATION) was “inactive; negative”. For the same molecule, the mutagenic call (Test System: AMES SALMONELLA TYPHIMURIUM, Strain/Indicator: TA98, Metabolic Activation: NONE, Method: FLUCTUATION (MICROTITER)) was “inactive; negative”, the mutagenic call (Test System: AMES SALMONELLA TYPHIMURIUM, Strain/Indicator: TA98, Metabolic Activation: NONE, Method: PREINCUBATION) was “inactive; negative” and the mutagenic call (Test System: AMES SALMONELLA TYPHIMURIUM, Strain/Indicator: TA98, Metabolic Activation: RAT LIVER S-9, AROCLOR 1254, Method: FLUCTUATION (MICROTITER)) was “inactive; negative”. The mutagenic call (Test System: AMES SALMONELLA TYPHIMURIUM, Strain/Indicator: TA98, Metabolic Activation: RAT LIVER S-9, PHENOBARBITAL AND BETA-NAPHTHOFLAVONE, Method: PREINCUBATION) was “inactive; negative”, the mutagenic call (Test System: AMES SALMONELLA TYPHIMURIUM, Strain/Indicator: TA98, Metabolic Activation: RAT, LIVER, S-9, AROCLOR 1254 (10%), Method: PREINCUBATION) was “inactive; negative” and the mutagenic call (Test System: AMES SALMONELLA TYPHIMURIUM, Strain/Indicator: TA100, Metabolic Activation: HAMSTER, LIVER, S-9, AROCLOR 1254 (10%), Method: PREINCUBATION) was “inactive; negative”. The mutagenic call (Test System: AMES SALMONELLA TYPHIMURIUM, Strain/Indicator: TA100, Metabolic Activation: MOUSE, LIVER, S-9, AROCLOR 1254 (10%), Method: PREINCUBATION) was “inactive; negative”, the mutagenic call (Test System: AMES SALMONELLA TYPHIMURIUM, Strain/Indicator: TA100, Metabolic Activation: RAT LIVER S-9, AROCLOR 1254, Method: PREINCUBATION) was “inactive; negative” and the mutagenic call (Test System: AMES SALMONELLA TYPHIMURIUM, Strain/Indicator: TA100, Metabolic Activation: RAT LIVER S-9, PHENOBARBITAL AND BETA-NAPHTHOFLAVONE, Method: PREINCUBATION) was “inactive; negative”. The mutagenic call (Test System: AMES SALMONELLA TYPHIMURIUM, Strain/Indicator: TA100, Metabolic Activation: RAT, LIVER, S-9, AROCLOR 1254 (10%), Method: PREINCUBATION) was “inactive; negative”, the mutagenic call (Test System: AMES SALMONELLA TYPHIMURIUM, Strain/Indicator: TA102, Metabolic Activation: MOUSE, LIVER, S-9, AROCLOR 1254 (10%), Method: PREINCUBATION) was “inactive; negative” and the mutagenic call (Test System: AMES SALMONELLA TYPHIMURIUM, Strain/Indicator: TA102, Metabolic Activation: NONE, Method: PREINCUBATION) was “inactive; negative”. For the same molecule, the mutagenic call (Test System: AMES SALMONELLA TYPHIMURIUM, Strain/Indicator: TA102, Metabolic Activation: RAT LIVER S-9, AROCLOR 1254, Method: PREINCUBATION) was “inactive; negative”, the mutagenic call (Test System: AMES SALMONELLA TYPHIMURIUM, Strain/Indicator: TA102, Metabolic Activation: RAT, LIVER, S-9, AROCLOR 1254 (10%), Method: PREINCUBATION) was “inactive; negative” and the mutagenic call (Test System: AMES SALMONELLA TYPHIMURIUM, Strain/Indicator: TA102, Metabolic Activation: RAT, LIVER, S-9, AROCLOR 1254, Method: PREINCUBATION) was “inactive; negative”. For the same molecule, the mutagenic call (Test System: AMES SALMONELLA TYPHIMURIUM, Strain/Indicator: TA104, Metabolic Activation: MOUSE, LIVER, S-9, AROCLOR 1254 (10%), Method: PREINCUBATION) was “inactive; negative”, the mutagenic call (Test System: AMES SALMONELLA TYPHIMURIUM, Strain/Indicator: TA104, Metabolic Activation: NONE, Method: PREINCUBATION) was “inactive; negative” and the mutagenic call (Test System: AMES SALMONELLA TYPHIMURIUM, Strain/Indicator: TA104, Metabolic Activation: RAT LIVER S-9, AROCLOR 1254, Method: PREINCUBATION) was “inactive; negative”. The mutagenic call (Test System: AMES SALMONELLA TYPHIMURIUM, Strain/Indicator: TA104, Metabolic Activation: RAT, LIVER, S-9, AROCLOR 1254 (10%), Method: PREINCUBATION) was “inactive; negative”, the mutagenic call (Test System: AMES SALMONELLA TYPHIMURIUM, Strain/Indicator: TA1535, Metabolic Activation: HAMSTER, LIVER, S-9, AROCLOR 1254 (10%), Method: PREINCUBATION) was “inactive; negative” and the mutagenic call (Test System: AMES SALMONELLA TYPHIMURIUM, Strain/Indicator: TA1535, Metabolic Activation: NONE, Method: PREINCUBATION) was “inactive; negative”. The mutagenic call (Test System: AMES SALMONELLA TYPHIMURIUM, Strain/Indicator: TA1535, Metabolic Activation: RAT LIVER S-9, PHENOBARBITAL AND BETA-NAPHTHOFLAVONE, Method: PREINCUBATION) was “inactive; negative”, the mutagenic call (Test System: AMES SALMONELLA TYPHIMURIUM, Strain/Indicator: TA1535, Metabolic Activation: RAT, LIVER, S-9, AROCLOR 1254 (10%), Method: PREINCUBATION) was “inactive; negative” and the mutagenic call (Test System: AMES SALMONELLA TYPHIMURIUM, Strain/Indicator: TA1537, Metabolic Activation: HAMSTER, LIVER, S-9, AROCLOR 1254 (10%), Method: PREINCUBATION) was “inactive; negative”. For the same molecule, the mutagenic call (Test System: AMES SALMONELLA TYPHIMURIUM, Strain/Indicator: TA1537, Metabolic Activation: NONE, Method: FLUCTUATION (MICROTITER)) was “inactive; negative”, the mutagenic call (Test System: AMES SALMONELLA TYPHIMURIUM, Strain/Indicator: TA1537, Metabolic Activation: NONE, Method: PREINCUBATION) was “inactive; negative” and the mutagenic call (Test System: AMES SALMONELLA TYPHIMURIUM, Strain/Indicator: TA1537, Metabolic Activation: RAT LIVER S-9, AROCLOR 1254, Method: FLUCTUATION (MICROTITER)) was “inactive; negative”. The mutagenic call (Test System: AMES SALMONELLA TYPHIMURIUM, Strain/Indicator: TA1537, Metabolic Activation: RAT LIVER S-9, PHENOBARBITAL AND BETA-NAPHTHOFLAVONE, Method: PREINCUBATION) was “inactive; negative”, the mutagenic call (Test System: AMES SALMONELLA TYPHIMURIUM, Strain/Indicator: TA1537, Metabolic Activation: RAT, LIVER, S-9, AROCLOR 1254 (10%), Method: PREINCUBATION) was “inactive; negative” and the mutagenic call (Test System: AMES SALMONELLA TYPHIMURIUM, Strain/Indicator: TA7001, Metabolic Activation: NONE, Method: FLUCTUATION (MICROTITER)) was “inactive; negative”. For the same molecule, the mutagenic call (Test System: AMES SALMONELLA TYPHIMURIUM, Strain/Indicator: TA7001, Metabolic Activation: RAT LIVER S-9, AROCLOR 1254, Method: FLUCTUATION (MICROTITER)) was “inactive; negative”, the mutagenic call (Test System: AMES SALMONELLA TYPHIMURIUM, Strain/Indicator: TA7002, Metabolic Activation: NONE, Method: FLUCTUATION (MICROTITER)) was “inactive; negative” and the mutagenic call (Test System: AMES SALMONELLA TYPHIMURIUM, Strain/Indicator: TA7002, Metabolic Activation: RAT LIVER S-9, AROCLOR 1254, Method: FLUCTUATION (MICROTITER)) was “inactive; negative”. The mutagenic call (Test System: AMES SALMONELLA TYPHIMURIUM, Strain/Indicator: TA7003, Metabolic Activation: NONE, Method: FLUCTUATION (MICROTITER)) was “inactive; negative”, the mutagenic call (Test System: AMES SALMONELLA TYPHIMURIUM, Strain/Indicator: TA7003, Metabolic Activation: RAT LIVER S-9, AROCLOR 1254, Method: FLUCTUATION (MICROTITER)) was “inactive; negative” and the mutagenic call (Test System: AMES SALMONELLA TYPHIMURIUM, Strain/Indicator: TA7004, Metabolic Activation: NONE, Method: FLUCTUATION (MICROTITER)) was “inactive; negative”. For the same molecule, the mutagenic call (Test System: AMES SALMONELLA TYPHIMURIUM, Strain/Indicator: TA7004, Metabolic Activation: RAT LIVER S-9, AROCLOR 1254, Method: FLUCTUATION (MICROTITER)) was “inactive; negative”, the mutagenic call (Test System: AMES SALMONELLA TYPHIMURIUM, Strain/Indicator: TA7005, Metabolic Activation: NONE, Method: FLUCTUATION (MICROTITER)) was “inactive; negative” and the mutagenic call (Test System: AMES SALMONELLA TYPHIMURIUM, Strain/Indicator: TA7005, Metabolic Activation: RAT LIVER S-9, AROCLOR 1254, Method: FLUCTUATION (MICROTITER)) was “active; positive”. For the same molecule, the mutagenic call (Test System: AMES SALMONELLA TYPHIMURIUM, Strain/Indicator: TA7006, Metabolic Activation: NONE, Method: FLUCTUATION (MICROTITER)) was “inactive; negative”, the mutagenic call (Test System: AMES SALMONELLA TYPHIMURIUM, Strain/Indicator: TA7006, Metabolic Activation: RAT LIVER S-9, AROCLOR 1254, Method: FLUCTUATION (MICROTITER)) was “inactive; negative” and the mutagenic call (Test System: E.COLI, Strain/Indicator: WP2UVRA/PKM101, Metabolic Activation: NONE, Method: PREINCUBATION) was “inactive; negative”. For the same molecule, the mutagenic call (Test System: E.COLI, Strain/Indicator: WP2UVRA/PKM101, Metabolic Activation: RAT LIVER S-9, PHENOBARBITAL AND BETA-NAPHTHOFLAVONE, Method: PREINCUBATION) was “inactive; negative” and the mutagenic call (Test System: MOUSE LYMPHOMA, Strain/Indicator: L5178Y (TK+/TK-), Metabolic Activation: NONE, Method: SUSPENSION/PLATE) was “active; positive”.
